{
  "source": "patent US4818748A",
  "about": "“Renin inhibitors and aminoacid and aminoaldehyde derivatives” (Bayer Aktiengesellschaft, priority 1986, dated 1989)",
  "key": {"[1]": {"system": "sodium-deficient spontaneously hypertensive rats", "assay": "Mean arterial pressure in anaesthetized sodium-deficient spontaneously hypertensive rats", "type": "in vivo, rat", "conditions": "intragastral administration; sodium-deficient SHR (furosemide in drinking water 14 days), anaesthetized with Inactin"}, "[2]": {"system": "spontaneously hypertensive rats", "assay": "In vivo test: systolic blood pressure of conscious spontaneously hypertensive rats, indirect tail-cuff measurement", "set-up": "species or system rat", "conditions": "conscious SHR; for systolic blood pressure: oral dose of 100 mg/kg", "description": "From the current state of the art, it was not to be expected that the compounds according to the invention have a hypotensive action when administered orally. […] [See Table 1].\nThe blood pressure of the conscious animals is thereby measured by the customary indirect measurement method on the tail, using an inflatable occlusion cuff and an infra-tone pulse recorder [compare H. Breuninger: Methoden zur unblutigen Messung des Blutdrucks an Kleintieren (Methods of bloodless measurement of the blood pressure on small animals), Arzneimittleforschung 6, 222-225 (1956)]. The substance is administered as a suspension in 1% strength Tylose by means of a stomach tube. The systolic blood pressure is measured before and 1, 2, 4 and 6 hours after administration."}, "[3]": {"molecular_target": "T1, endogenous resin from human plasma (Homo sapiens, UniProt P00797)", "T1 construct": "endogenous resin from human plasma; from tissue; host or cells: pooled human plasma (EDTA)", "T1 sequence (P00797 67-406)": "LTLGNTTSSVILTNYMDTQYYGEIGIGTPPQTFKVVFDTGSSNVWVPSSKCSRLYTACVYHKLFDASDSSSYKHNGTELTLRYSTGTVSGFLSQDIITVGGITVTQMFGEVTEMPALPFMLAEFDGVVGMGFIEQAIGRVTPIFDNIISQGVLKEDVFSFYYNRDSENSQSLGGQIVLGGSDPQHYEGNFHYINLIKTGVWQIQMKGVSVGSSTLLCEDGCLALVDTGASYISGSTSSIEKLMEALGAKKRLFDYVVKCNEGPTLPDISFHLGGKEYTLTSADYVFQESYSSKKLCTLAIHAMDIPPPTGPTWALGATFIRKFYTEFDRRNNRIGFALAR", "assay": "In vitro test: inhibition of plasma renin activity (angiotensin I formation, radioimmunoassay)", "type": "biochemical", "protocol": "The inhibitory strength of the peptides according to the invention against endogenous resin from human plasma is determined in vitro. Pooled human plasma is obtained, with the addition of ethylenediaminetetraacetic acid (EDTA) as an anticoagulant and is stored at -20° C. The plasma renin activity (PRA) is determined as the rate of formation of angiotensin I from endogenous angiotensinogen and renin after incubation at 37° C. The reaction solution contains 150 μl of plasma, 3 μl of 6.6% strength 8-hydroxyquinoline sulphate solution, 3 μl of 10% strength dimercaprol solution and 144 μl of sodium phosphate buffer (0.2M; 0.1% of EDTA; pH 5.6) with or without the substances according to the invention in various concentrations. The angiotensin I formed per unit time is determined by radioimmunoassay (Sorin Biomedica, Italy). The percentage inhibition of the plasma renin activity is calculated by comparison of the amount of angiotensin I formed here with or without the substances according to the invention."}},
  "data": [
    {"smiles": "CC[C@H](C)[C@H](NC(=O)C[C@H](O)[C@H](Cc1ccc([N+](=O)[O-])cc1)NC(=O)[C@H](Cc1c[nH]cn1)NC(=O)[C@H](Cc1ccccc1)NC(=O)OC(C)(C)C)C(=O)OC", "note": "[Example 12, N-tert.-Butoxycarbonyl-phenylalanyl-L-histidyl-4S-amino-3S-hydroxy-5-(4-nitrophenyl)pentanoyl-L-isoleucine methyl ester]", "values": [
      {"measurement": "mean arterial pressure (in words)", "setting": "[1]", "result": "reduces the mean arterial pressure"},
      {"measurement": "systolic blood pressure", "setting": "[2]; 0 hours (before administration)", "result": 165.0, "unit": "mm Hg"},
      {"measurement": "systolic blood pressure", "setting": "[2]; 1 hour after administration", "result": 163.1, "unit": "mm Hg"},
      {"measurement": "systolic blood pressure", "setting": "[2]; 2 hours after administration", "result": 161.8, "unit": "mm Hg"},
      {"measurement": "systolic blood pressure", "setting": "[2]; 4 hours after administration", "result": 151.8, "unit": "mm Hg"},
      {"measurement": "systolic blood pressure", "setting": "[2]; 6 hours after administration", "result": 148.5, "unit": "mm Hg"},
      {"measurement": "antihypertensive action (in words)", "setting": "[2]; oral administration of 100 mg/kg", "result": "antihypertensive action is observed"},
      {"measurement": "inhibition of renin activity in vitro (in words)", "setting": "[3]", "result": "inhibit the renin activity in vitro"}
    ]}
  ]
}
